From patent US9029384B2, “Phosphatidylinositol 3-kinase inhibitors” (Gilead Calistoga LLC, priority 2012, dated 2015)
Like-named read-outs stand apart in the source and are kept apart here.

What was measured:
PI3Kδ = target: T1, PI3Kδ (Homo sapiens, UniProt O00329); assay: Enzymatic activity of PI3K isoforms, TR-FRET assay (PIP3 formation); format: biochemical
T1 construct: made in house
In short: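 Recombinant heterodimeric class I PI3K; PIP3 product measured by TR-FRET competition with labelled PIP3 for Eu-GRP-1 PH domain. Reaction 30 min at 25 °C, stopped with 10 mM EDTA.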

basophils = assay: Basophil activation in human whole blood (Flow2 CAST kit, CD63 positive cells); format: cell-based; details: Homo sapiens
In short: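 Human whole blood (K2-EDTA) preincubated 60 minutes at 37° C with compound serial dilutions or DMSO (0.3% final), then stimulated with anti-FcεRI mAb or fMLP and stained for CD63/CCR3. Percent CD63+ among ≥200 CCR3-high basophils by flow cytometry, normalized to stimulated vehicle as 100%. EC50 from four-parameter fits, geometric means in nM, concentrations corrected for reagent dilution.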

[1] = Hepatocyte stability, 1% final DMSO, 2 μM substrate (t1/2^a); format: in vitro ADME; details: human, cryopreserved hepatocytes, TA with 1% final DMSO
Method: This assay was used to evaluate the metabolic stability of test articles (TA) following incubation in cryopreserved hepatocytes by monitoring parent drug disappearance via […]. The TA with 1% final DMSO concentration was incubated with 1 million hepatocytes/ml at 2 μM substrate in duplicate. The incubation was carried out at 37° C. with 5% CO2 and saturating humidity.

[2] = Hepatocyte stability, 0.01% final DMSO, 1 μM substrate (t1/2^b); format: in vitro ADME; details: human, hepatocytes, TA with 0.01% final DMSO
Method: Alternatively, assay reagents and/or conditions can be modified in determining the inhibitory activities to PI3K isomers. In additional studies, similar assay using TA and 0.01% final DMSO concentration were incubated with 1 million hepatocytes/mL at 1 μM substrate in duplicate. The incubation was carried out at 37° C. with 5% CO2 and saturating humidity.

[3] = PI3Kδ, TR-FRET, 2×Km ATP, 10 μM PIP2, read-out: IC50
[4] = basophils activated with anti-FcεRI mAb or fMLP, geometric mean
[5] = 2 μM substrate, samples at 0, 1, 2, 4 hours, read-out: human hepatocyte t½^a
[6] = 1 μM substrate, samples at 0, 1, 3, 6 hours, read-out: human hepatocyte t½^b
[7] = human hepatocytes, read-out: t1/2^a
[8] = human hepatocytes, read-out: t1/2^b

T1 sequence (O00329 whole entry, canonical isoform): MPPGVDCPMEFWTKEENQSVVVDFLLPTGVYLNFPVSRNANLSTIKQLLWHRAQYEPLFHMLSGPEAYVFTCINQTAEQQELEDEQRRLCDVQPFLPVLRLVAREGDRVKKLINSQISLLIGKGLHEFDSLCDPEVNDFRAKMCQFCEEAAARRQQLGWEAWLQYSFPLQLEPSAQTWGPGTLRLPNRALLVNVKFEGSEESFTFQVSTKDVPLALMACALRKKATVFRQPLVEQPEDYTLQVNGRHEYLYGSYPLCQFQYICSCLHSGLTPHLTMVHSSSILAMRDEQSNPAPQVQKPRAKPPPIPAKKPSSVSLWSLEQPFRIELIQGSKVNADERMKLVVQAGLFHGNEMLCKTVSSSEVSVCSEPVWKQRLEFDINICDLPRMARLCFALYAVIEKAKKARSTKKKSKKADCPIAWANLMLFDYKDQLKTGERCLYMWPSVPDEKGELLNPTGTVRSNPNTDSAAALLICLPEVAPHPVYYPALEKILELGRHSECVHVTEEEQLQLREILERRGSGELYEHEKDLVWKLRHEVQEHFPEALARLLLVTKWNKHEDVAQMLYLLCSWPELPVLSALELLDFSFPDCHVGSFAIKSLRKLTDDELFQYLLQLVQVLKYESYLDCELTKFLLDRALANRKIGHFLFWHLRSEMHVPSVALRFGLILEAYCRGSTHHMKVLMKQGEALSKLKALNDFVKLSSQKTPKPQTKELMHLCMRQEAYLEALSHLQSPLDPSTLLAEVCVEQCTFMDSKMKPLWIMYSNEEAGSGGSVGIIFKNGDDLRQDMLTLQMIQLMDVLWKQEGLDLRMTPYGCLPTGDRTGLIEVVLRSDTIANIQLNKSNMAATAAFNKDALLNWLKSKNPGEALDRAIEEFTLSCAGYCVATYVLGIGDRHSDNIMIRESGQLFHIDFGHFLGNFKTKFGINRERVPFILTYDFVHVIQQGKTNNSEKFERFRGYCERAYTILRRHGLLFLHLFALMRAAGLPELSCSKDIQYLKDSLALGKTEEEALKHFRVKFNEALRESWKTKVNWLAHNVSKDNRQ
T1 sequence (P27986 whole entry partner, canonical isoform): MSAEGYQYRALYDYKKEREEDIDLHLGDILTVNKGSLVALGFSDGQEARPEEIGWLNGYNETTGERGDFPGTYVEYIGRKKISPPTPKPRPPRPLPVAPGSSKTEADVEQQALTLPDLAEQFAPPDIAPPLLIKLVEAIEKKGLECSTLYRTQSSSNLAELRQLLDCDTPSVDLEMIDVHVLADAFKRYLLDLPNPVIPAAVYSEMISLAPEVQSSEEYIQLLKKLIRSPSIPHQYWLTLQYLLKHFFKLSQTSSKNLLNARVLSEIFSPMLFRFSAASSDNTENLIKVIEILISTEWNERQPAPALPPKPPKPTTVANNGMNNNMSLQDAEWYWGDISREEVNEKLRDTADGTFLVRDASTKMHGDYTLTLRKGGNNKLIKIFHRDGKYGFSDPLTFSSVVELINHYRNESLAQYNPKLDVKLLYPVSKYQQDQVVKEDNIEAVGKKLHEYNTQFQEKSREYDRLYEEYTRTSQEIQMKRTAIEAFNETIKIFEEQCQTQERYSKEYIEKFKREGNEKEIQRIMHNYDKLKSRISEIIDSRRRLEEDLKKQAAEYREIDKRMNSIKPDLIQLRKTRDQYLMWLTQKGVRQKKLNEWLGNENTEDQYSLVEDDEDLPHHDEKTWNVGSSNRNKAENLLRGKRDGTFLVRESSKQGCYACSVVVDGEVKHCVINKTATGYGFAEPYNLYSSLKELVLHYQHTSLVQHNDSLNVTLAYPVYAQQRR

Compound	IC50 (PI3Kδ; [3]) [nM]	EC50 (basophils; [4]) [nM]	half-life at 2 μM [1, 5] [h]	half-life at 1 μM [2, 6] [h]	IC50 (PI3Kδ) [nM]	EC50 (basophils; basophil activation) [nM]	half-life at 2 μM [1, 7] [h]	half-life at 1 μM [2, 8] [h]
CC(Nc1nc(N)nc(N)c1C#N)c1nc2cccc(F)c2c(=O)n1-c1cccc(C#N)c1 (single isomer, unassigned) [Compound 38a]	10 to 50	1 to 10	> 10	> 10				
C[C@H](Nc1ncnc(N)c1C#N)c1nc2cccc(Cl)c2c(=O)n1-c1cc(F)cc(F)c1 [Z, reference compound]		10 to 50	1 to 3		1 to 10	> 10	< 3	< 2
C[C@H](Nc1ncnc(N)c1C#N)c1nc2cccc(Cl)c2c(=O)n1-c1ccccc1 [Y, reference compound]		10 to 50	< 1		< 1	> 15	< 2	< 2
C[C@H](Nc1ncnc2[nH]cnc12)c1nc2cccc(Cl)c2c(=O)n1-c1ccccc1 [X, reference compound]		1 to 10	1 to 3			> 5	< 1	< 2
CCC(Nc1nc(N)nc(N)c1C#N)c1nc2c(C)ccc(F)c2c(=O)n1-c1cc(F)cc(F)c1 (single isomer, unassigned) [Compound 37a]	10 to 50	10 to 50	6 to 10	3 to 6				
CCC(Nc1nc(N)nc(N)c1C#N)c1nc2ccccc2c(=O)n1-c1cc(F)cc(F)c1 (single isomer, unassigned) [Compound 36a]	10 to 50	1 to 10	> 10	> 10				
CC(Nc1nc(N)nc(N)c1C#N)c1nc2cccc(F)c2c(=O)n1-c1cc(F)cc(Cl)c1 (single isomer, unassigned) [Compound 44a]	10 to 50	10 to 50	> 10	1 to 3				
CC(Nc1nc(N)nc(N)c1C#N)c1nc2cccc(F)c2c(=O)n1-c1cc(Cl)cc(Cl)c1 (single isomer, unassigned) [Compound 42a]	10 to 50	1 to 10	> 10	1 to 3				
CC(Nc1nc(N)nc(N)c1C#N)c1nc2c(F)cccc2c(=O)n1-c1cc(F)cc(F)c1 (single isomer, unassigned) [Compound 16a]	1 to 10	1 to 10	> 10	3 to 6				
CC(Nc1nc(N)nc(N)c1C#N)c1nc2c(C#N)cccc2c(=O)n1-c1ccccc1 (single isomer, unassigned) [Compound 122a]	1 to 10	1 to 10	> 10	> 10				
CC(Nc1nc(N)nc(N)c1C#N)c1nc2c(C#N)cccc2c(=O)n1-c1cc(F)cc(F)c1 (single isomer, unassigned) [Compound 101a]	1 to 10	1 to 10	> 10	3 to 6				
CC(Nc1nc(N)nc(N)c1C#N)c1nc2cccc(F)c2c(=O)n1-c1cccc(C(F)F)c1 (single isomer, unassigned) [Compound 97a]	1 to 10	1 to 10	> 10	3 to 6				
CCC(Nc1nc(N)nc(N)c1C#N)c1nc2c(F)ccc(F)c2c(=O)n1-c1cc(F)cc(F)c1 (single isomer, unassigned) [Compound 27a]	10 to 50	1 to 10	> 10	1 to 3				

Second part, led by results:

IC50 (PI3Kδ; [3]) [nM]	EC50 (basophils; [4]) [nM]	half-life at 2 μM [1, 5] [h]	half-life at 1 μM [2, 6] [h]	Compound	IC50 (PI3Kδ) [nM]	EC50 (basophils; basophil activation) [nM]	half-life at 2 μM [1, 7] [h]	half-life at 1 μM [2, 8] [h]
< 1	1 to 10	> 10	3 to 6	CC(Nc1nc(N)nc(N)c1C#N)c1nc2cccc(Cl)c2c(=O)n1-c1cccc(F)c1 (single isomer, unassigned) [Compound 108a]				
1 to 10	< 1	> 10	3 to 6	Cc1ccc(F)c2c(=O)n(-c3ccccc3)c(C(C)Nc3nc(N)nc(N)c3C#N)nc12 (single isomer, unassigned) [Compound 61a]				
1 to 10	1 to 10	> 10	3 to 6	CC(Nc1nc(N)nc(N)c1C#N)c1nc2cccc(F)c2c(=O)n1-c1cc(F)cc(F)c1 (single isomer, unassigned) [Compound 10a]				
< 1	< 1	> 10	3 to 6	CC(Nc1nc(N)nc(N)c1C#N)c1nc2cccc(Cl)c2c(=O)n1-c1ccccc1 (single isomer, unassigned) [Compound 49a]		< 0.5	> 10	> 4
1 to 10	1 to 10	> 10	6 to 10	CC(Nc1nc(N)nc(N)c1C#N)c1nc2ccc(F)cc2c(=O)n1-c1cc(F)cc(F)c1 (single isomer, unassigned) [Compound 11a]				
1 to 10	1 to 10	> 10	1 to 3	CC(Nc1nc(N)nc(N)c1C#N)c1nc2c(Cl)ccc(F)c2c(=O)n1-c1cc(F)cc(F)c1 (single isomer, unassigned) [Compound 67a]				
< 1	< 1	6 to 10	1 to 3	C[C@H](Nc1nc(N)nc(N)c1C#N)c1nc2cccc(Cl)c2c(=O)n1-c1cc(F)cc(F)c1 [Compound 1a, 2,4-diamino-6-((1-(5-chloro-3-(3,5-difluorophenyl)-4-oxo-3,4-dihydroquinazolin-2-yl)ethyl)amino)pyrimidine-5-carbonitrile]		< 0.5	> 9	> 1
1 to 10	1 to 10	> 10	3 to 6	CC(Nc1nc(N)nc(N)c1C(N)=O)c1nc2cccc(Cl)c2c(=O)n1-c1cc(F)cc(F)c1 (single isomer, unassigned) [Compound 90a]				
1 to 10	1 to 10	> 10	1 to 3	CC[C@H](Nc1nc(N)nc(N)c1C#N)c1nc2cccc(F)c2c(=O)n1-c1cc(F)cc(F)c1 [Compound 77a, (S)-2,4-diamino-6-((1-(3-(3,5-difluorophenyl)-5-fluoro-4-oxo-3,4-dihydroquinazolin-2-yl)propyl)amino)pyrimidine-5-carbonitrile]				
1 to 10	< 1	> 10	6 to 10	CCC(Nc1nc(N)nc(N)c1C#N)c1nc2c(F)cccc2c(=O)n1-c1cc(F)cc(F)c1 (single isomer, unassigned) [Compound 17a]				
1 to 10	1 to 10	> 10	6 to 10	CC(Nc1nc(N)nc(N)c1C#N)c1nc2cccc(C(F)F)c2c(=O)n1-c1cc(F)cc(F)c1 (single isomer, unassigned) [Compound 52a]				
1 to 10	1 to 10	> 10	1 to 3	CC(Nc1nc(N)nc(N)c1C#N)c1nc2c(Cl)cccc2c(=O)n1-c1cc(F)cc(F)c1 (single isomer, unassigned) [Compound 71a]				
